From patent publication US7132542B2, “Compounds for the treatment of male erectile dysfunction” (Bristol-Myers Squibb Company, priority 2003, dated 2006)

Legend:
[1] = test system: rat small intestine tissue; experiment: Relaxation of rat small intestine (ileum) segments; parameters: concentration or dose not given beside the values; conditions: integral of nifedipine-sensitive force, 30 min post-compound addition
Text: The ability of the compounds of the invention to relax rat small intestine tissue as a model for the treatment of irritable bowel syndrome is described as follows. Male rats (Harlan, Sprague Dawley, 250–350 g) were sacrificed by decapitation. A portion of small intestine (ileum) was removed and the attached connective tissues and intestinal contents removed. The ileum was cut into segments of ≦1 cm in length. The segments were mounted longitudinally between fixed hooks in organ baths containing warm (37° C.) physiological salt solution (composition in mM: NaCl 118.4, KCl 4.7, KH2PO4 1.2, MgSO4 1.2, CaCl2 1.8, Glucose 10.1, NaHCO3 25; gassed with 95% O2/5% CO2, pH 7.4). A stable tension of ˜1.5 g was maintained in the tissue segments during the equilibration period of 45 minutes. Changes in muscle tension were measured with isometric force transducers (Grass, FT-03C) and recorded using AcqKnowledge data acquisition system (AcqKnowledge for MP100WS, Biopac Systems Inc., Goleta, Calif.). Compound or vehicle was added in the baths for 30 minutes. “Zero” active force was established at the end of the experiment using nifedipine (20 μM). The effects of compounds or vehicle on force was determined by measuring the integral of nifedipine-sensitive force (including resting tone and spontaneous contractions) pre- and 30 min post-compound (or vehicle) addition. Results are expressed as the percentage inhibition of force. DMSO vehicle inhibited force (integral) by −0.6±3.0% (n=25).

[2] = test system: cloned mammalian (mSlo or hSlo) BK channel; experiment: Assay for BK channel openers: two-electrode voltage clamp of BK-mediated outward current in Xenopus oocytes; format: cell-based; conditions: at 20 μM; percent increase over BK current in controls, voltage step to +140 mV; IBTX-sensitive current
Procedure: The ability of the compounds of the invention to open BK channels and increase whole-cell outward (K^+) BK-mediated currents was assessed under voltage-clamp conditions by determining their ability to increase cloned mammalian (mSlo or hSlo) BK-mediated outward current heterologously expressed in Xenopus oocytes [Butler, A., et al., Science 1993, 261, 221–224; Dworetzky, S. I., et al., Mol. Brain Res. 1994, 27, 189–193; Gribkoff, V. K., et al., Mol. Pharmacol. 1996, 50, 206–217]. The two BK constructs employed represent nearly structurally identical homologous proteins, and have proven to be pharmacologically indistinguishable in our tests. To isolate BK current from native (background, non-BK) current, the specific and potent BK channel-blocking toxin iberiotoxin (IBTX) [Galvez, A., et al., J. Biol. Chem. 1990, 265, 11083–11090] was employed at a supramaximal concentration, e.g., 50–100 nanomolar (“nM”). The relative contribution of BK channel-mediated current to total outward current was determined by subtraction of the current remaining in the presence of IBTX (non-BK current) from the current profiles obtained in all other experimental conditions (control, drug, and wash) [Gribkoff, V. K. et al., Mol. Pharmacol. 1996, 50, 206–217]. […] All compounds were tested in 5–10 oocytes and are reported at the indicated concentration of 20 micromolar (“μM”) (or as otherwise indicated); the effect of the selected compounds of the invention on BK current was expressed as the percent of control IBTX-sensitive current at a single transmembrane voltage (+140 mV) and is listed in Table 1. Recordings were accomplished using standard two-electrode voltage clamp techniques [Stuhmer, W., et al., Methods in Enzymology, 1992, 207, 319–339]; voltage-clamp protocols consisted of 500–750 milliseconds (“ms”) duration step depolarizations, from a holding potential of −60 mV, to a final voltage up to +140 mV in 20 mV steps. The experimental media (modified Barth's solution) consisted of millimolar (“mM”): NaCl (88), NaHCO3 (2.4), KCl (1.0), HEPES (10), MgSO4 (0.82), Ca(NO3)2 (0.33), CaCl2 (0.41); pH 7.5.

[3] = test system: rabbit corpus cavernosum tissue; experiment: Relaxation of rabbit corpus cavernosum strips precontracted with phenylephrine; conditions: Oryctolagus cuniculus; inhibition of phenylephrine (3 μM)-induced force as compared to vehicle control; read-out: % Inhibition of force (RCC strips)
Procedure: The ability of the compounds of the invention to relax rabbit corpus cavernosum tissue as a model for the treatment of erectile dysfunction is described as follows. New Zealand white rabbits (3.4–3.7 kg) were euthanized by sodium pentobarbital (100 mg/kg) overdose. The penis from each animal was rapidly removed and immersed in a cold oxygenated modified Krebs Henseleit bicarbonate buffer. The penis' outer tunica was removed and the corpus cavernosum smooth muscle obtained and cut into strips approximately 3–5 mm long. The strips were suspended in tissue baths containing physiological salt solution (see above), and allowed to equilibrate for at least one hour under resting tension of 1.0 gram. Isometric force was measured as described above. Tissue strips were stimulated with the α-agonist phenylephrine (3 μM) and allowed to reach a steady level of force prior to the addition of test compounds. The results are expressed as the percentage inhibition of phenylephrine-induced force as compared to vehicle control.

## O=C(CCN1CCC(N2CCCCC2)CC1)Nc1ccc(Sc2c(-c3cc(Cl)ccc3O)c3cc(C(F)(F)F)ccc3[nH]c2=O)cc1 [Example 13, N-[4-[[4-(5-chloro-2-hydroxyphenyl)-1,2-dihydro-2-oxo-6-(trifluoromethyl)-3-quinolinyl]thio]phenyl]-[1,4′-bipiperidine]-1′-propanamide]
[1]
  % Inhibition of force (RSI strips): 78%
[2]
  % MaxiK opening: 255%
[3]
  inhibition: 23%
